# Data as given in patent US20250381242A1 (INVAIO SCIENCES, INC., priority 2024, published 2025).
# No end group written: not given here.
# Tests used:
# [1] = test system: E. coli; assay: Bacterial growth inhibition by OD600 absorbance, E. coli; format: cell-based, E. coli (DH5-alpha); settings: peptide 10 μM, 24 hours at 37° C., OD 600 nm
# Method in brief: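 Peptides added to bacterial culture at 10 μM final (0.1% DMSO); X. citri grown at 30° C., E. coli at 37° C., for 24 h. OD600 read before and after growth; percent inhibition derived relative to 0.1% DMSO negative and oxytetracycline/streptomycin positive controls.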
# [2] = test system: A. tumefaciens; settings: 24 h, 10 μM
# [3] = test system: E. amylovora; settings: 24 h, 10 μM
# [4] = test system: X. citri; assay: Bacterial growth inhibition by OD600 absorbance, X. citri; format: cell-based, X. citri subsp. citri (ATCC 49118); settings: peptide 10 μM, 24 hours at 30° C., OD 600 nm
# [5] = test system: L. crescens; settings: 10 μM
Sequence,"growth inhibition, E. coli [1]","growth inhibition, A. tumefaciens [2]","growth inhibition, E. amylovora [3]","growth inhibition, X. citri [4]","growth inhibition, L. crescens [5]"
SWKSMAKKLKEYMEKLKQRA [compound 50],<90%,99.59%,100.00%,<90%,<90%
WFGHLYRGITKVVKHVHGLLKG [compound 40],100.00%,100.00%,100.00%,100.00%,<90%
WFGKLYRGITSVVKKVKGLLSG [compound 55],100.00%,100.00%,100.00%,100.00%,<90%
WIKIWKKIIKKWKK [compound 91],<90%,98.97%,100.00%,<90%,<90%
WKKIWKKIWKPGIKKWIKKWIK [compound 24],100.00%,97.97%,98.38%,99.69%,<90%
WKLKWKLKWKLK [compound 104],<90%,100.00%,99.91%,<90%,<90%
WLNALLHHGYKRKFH [compound 93],<90%,<90%,<90%,<90%,<90%
WLSKTAKKLWLSKTAKKLWLSKTAKKL [compound 15],<90%,<90%,<90%,96.25%,<90%
WWKAAAKAAAKWW [compound 117],<90%,99.97%,99.79%,100.00%,<90%
